As usually defined, the IC50 is the concentration that gives 50% inhibition. Read a high IC50 as weaker potency in that assay. The term inhibition denotes the drop in the measured response relative to a control, in per cent.

These results are taken from publication PMC6268439, “Tebrophen — An Old Polyphenol Drug with Anticancer Potential ^†” (Molecules, 2012).

Type in all cases: biochemical
One assay deals with T1, ZAP-70 (Homo sapiens, UniProt P43403).
T1 construct: gene ZAP70
T1 sequence (P43403 1-619): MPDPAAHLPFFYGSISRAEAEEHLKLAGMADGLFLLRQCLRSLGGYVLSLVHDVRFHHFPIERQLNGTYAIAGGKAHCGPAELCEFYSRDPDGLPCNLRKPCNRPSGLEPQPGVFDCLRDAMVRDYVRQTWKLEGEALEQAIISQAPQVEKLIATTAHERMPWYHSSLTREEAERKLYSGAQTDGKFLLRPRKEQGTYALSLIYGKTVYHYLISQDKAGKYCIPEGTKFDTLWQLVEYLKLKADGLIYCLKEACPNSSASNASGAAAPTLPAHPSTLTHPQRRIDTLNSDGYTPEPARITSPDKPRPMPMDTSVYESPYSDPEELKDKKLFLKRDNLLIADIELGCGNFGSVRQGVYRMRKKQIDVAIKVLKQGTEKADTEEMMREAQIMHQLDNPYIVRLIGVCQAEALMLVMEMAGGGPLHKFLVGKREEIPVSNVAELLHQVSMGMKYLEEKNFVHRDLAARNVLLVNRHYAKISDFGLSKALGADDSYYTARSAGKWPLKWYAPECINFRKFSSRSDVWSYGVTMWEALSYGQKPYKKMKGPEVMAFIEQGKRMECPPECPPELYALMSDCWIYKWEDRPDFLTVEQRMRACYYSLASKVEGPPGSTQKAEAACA
Nature of the assay: ELISA kinase assay with purified kinase expressed in Sf9, poly Glu:Tyr ([…]) substrate. On the technique in general: ELISA stands for enzyme-linked immunosorbent assay.

For assay [1], the target named is T2, Dipeptidyl peptidase IV (DPPIV/CD26) (Homo sapiens, UniProt P27487).
T2 construct: gene DPP4
As to the kind of experiment: enzyme assay with H-Gly-Pro-pNA substrate; […] inhibition at […].

Another assay addresses Lck (Homo sapiens, UniProt P06239). Nature of the assay: ELISA kinase assay with purified kinase expressed in Sf9, poly Glu:Tyr ([…]) substrate.

Lck, sequence (P06239 2-509): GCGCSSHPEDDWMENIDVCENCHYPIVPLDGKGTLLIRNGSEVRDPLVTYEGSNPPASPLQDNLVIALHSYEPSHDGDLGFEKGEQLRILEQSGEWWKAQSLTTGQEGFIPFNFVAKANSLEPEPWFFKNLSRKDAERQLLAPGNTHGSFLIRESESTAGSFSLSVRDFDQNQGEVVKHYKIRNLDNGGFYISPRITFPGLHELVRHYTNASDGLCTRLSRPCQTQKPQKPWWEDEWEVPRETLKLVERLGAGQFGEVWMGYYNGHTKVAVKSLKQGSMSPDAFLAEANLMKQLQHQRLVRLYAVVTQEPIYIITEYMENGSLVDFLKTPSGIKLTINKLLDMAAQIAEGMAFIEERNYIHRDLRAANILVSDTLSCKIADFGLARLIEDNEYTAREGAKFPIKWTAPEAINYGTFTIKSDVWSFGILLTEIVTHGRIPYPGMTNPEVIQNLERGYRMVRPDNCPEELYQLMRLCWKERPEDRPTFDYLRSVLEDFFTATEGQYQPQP
T2 sequence (P27487 39-766): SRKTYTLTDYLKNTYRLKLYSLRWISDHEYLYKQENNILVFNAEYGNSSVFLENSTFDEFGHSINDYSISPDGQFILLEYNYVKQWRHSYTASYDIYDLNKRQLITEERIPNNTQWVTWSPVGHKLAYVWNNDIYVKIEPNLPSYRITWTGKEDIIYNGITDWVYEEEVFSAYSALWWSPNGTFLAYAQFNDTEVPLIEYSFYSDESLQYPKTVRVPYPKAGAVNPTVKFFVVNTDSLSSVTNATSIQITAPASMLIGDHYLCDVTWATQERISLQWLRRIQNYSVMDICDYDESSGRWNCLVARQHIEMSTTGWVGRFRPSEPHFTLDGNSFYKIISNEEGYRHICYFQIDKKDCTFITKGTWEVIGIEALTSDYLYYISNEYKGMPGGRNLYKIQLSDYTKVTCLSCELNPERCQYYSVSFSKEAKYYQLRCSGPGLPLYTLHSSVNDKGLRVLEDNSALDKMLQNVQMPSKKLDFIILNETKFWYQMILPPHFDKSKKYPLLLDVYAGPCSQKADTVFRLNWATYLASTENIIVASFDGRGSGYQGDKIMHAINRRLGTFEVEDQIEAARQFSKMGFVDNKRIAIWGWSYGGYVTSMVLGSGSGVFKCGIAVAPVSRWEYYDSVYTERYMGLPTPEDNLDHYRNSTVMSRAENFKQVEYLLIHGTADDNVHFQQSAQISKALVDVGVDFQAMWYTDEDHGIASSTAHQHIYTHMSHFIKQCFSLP

`Oc1c(Br)cc(-c2cc(Br)c(O)c(Br)c2O)c(O)c1Br` [tebrophen, 3,3',5,5'-tetrabromobiphenyl-2,2',4,4'-tetrol]: the IC50 against ZAP-70 amounted to 0.34 µM; against Lck, 16 µM. In addition, in assay [1], the inhibition at 80 µM came to 41%.
